{"source": "patent US11117919B2", "about": "“Icariside compound, preparation method thereof, and application thereof” (FOSHAN GOLDEN HEALTH TECHNOLOGY CO., LTD., priority 2015, dated 2021)", "key": {"[1]": {"system": "human peripheral blood mixed lymphocytes", "experiment": "IFN-γ production in mixed lymphocyte culture (MLC) reaction", "format": "cell-based", "conditions": "120 h", "experimental": "Effect of icariside I on promotion of γ-interferon (interferon-gamma, IFN-γ) production by human peripheral blood mixed lymphocytes during culture (an experimental model mimicking enhancing immunity in human body).\n(1) Preparation of human peripheral blood mononuclear cells (PBMCs): following the method in Example 5 (2), peripheral blood PBMCs from two normal human were prepared.\nCell concentrations of freshly isolated peripheral blood mononuclear cells (PBMCs) were adjusted to […] with RPMI1640 complete medium. Then, lymphocytes from two healthy human with equal volumes were mixed to maintain a total cell concentration of […]. Different concentrations (in a gradient) of or no icariside I were added thereto (with final concentration of 100 ng/ml, 1000 ng/ml) followed by fully mixing. Then the cells after stimulation were seeded and cultured in a 96-well round-bottom culture plate. The cell concentration per well was maintained at 2×10^5/ml (200 μl/well) and was incubated at 37° C. with 5% CO2 for 120 h in an incubator. The levels of cytokine IFN-γ were detected.\nAccording to the method stated in Example 5 (4), the γ-interferon generated from human peripheral blood mixed lymphocyte culture (MLC) was detected.\nEqual cell concentrations of lymphocytes from healthy human were mixed cultured for five days (120 h). The pharmaceutical icariside I was added (in a gradient of different pharmaceutical concentrations) or not added. […] Among them, the human lymphocyte A control is a group of samples containing only one kind of human lymphocyte, while human lymphocyte B control is a group of samples containing two kinds of human lymphocytes, that is, a control group in which two kinds of human lymphocytes were mixed for culture without adding icariside I. The concentrations of icariside I added were 0.1 and 1 μg/ml respectively. *P<0.05; **P<0.01. […]\nCell concentrations of freshly isolated peripheral blood mononuclear cells (PBMCs) were adjusted to 5×10^5/ml with RPMI1640 complete medium. […] The level of cytokine IFN-γ produced was then detected."}, "[2]": {"system": "S180 ascites tumor of mice", "experiment": "Inhibition of S180 tumor growth in mice", "conditions": "for change of body weight (g) / tumor inhibition rate (%) with physiological saline group as control / tumor inhibition rate (%) with solvent group as control / weight of tumor (x ± SD, g): 10 days", "experimental": "NIH mice used for the tests were about 18-22 grams and divided into 10 mice per group. The liquid (0.2 ml) of S180 ascites tumor of mice was inoculated subcutaneously into the armpit region of mice. The next day after the inoculation, each group of mice were injected intraperitoneally: (1) physiological saline group; (2) solvent control group (DMSO); (3) positive control group [cyclophosphamide 60 mg/(kg·d)]; (4) low-dose group 1: icariside I 2 mg/(kg·d); (5) low-dose group 2: icariside I 5 mg/(kg·d); (6) middle-dose group: icariside I 10 mg/(kg·d); (7) high-dose group: icariside I 20 mg/(kg·d). After administration for 10 continuous days, the administration was stopped and on the next day, the mice were weighed and sacrificed with tumor mass stripped and weighed. The physiological saline group and solvent group were used as a control for calculation of tumor inhibition rate."}, "xenograft tumor": {"system": "xenograft tumor", "experiment": "Xenograft tumor growth in nude mice", "format": "in vivo, BALB/c (nu/nu) female nude mice", "conditions": "intraperitoneal 0.02 and 0.1 mg/10 g every 2 days, 30-day period", "experimental": "The test used 4-6 weeks old BALB/c (nu/nu) female nude mice weighed 18-22 g fed in a SPF clean room with free access to food and water. […] When the tumor grew to the initial volume for administration with a pharmaceutical (100 mm^3), these mice were divided into groups with 10 mice for each group. For each group, nude mice were injected intraperitoneally: (1) the blank control group was injected with 0.1 ml/10 g solvent (5% DMSO+95% physiological saline); […] The administration was conducted every 2 days in a 30-day period. Vernier caliper was used to measure the largest longitudinal diameter (L) and transverse diameter (S) of tumor every two days. The approximate volume of the tumor was calculated with the equation of V (cm^3)=0.5×L× S^2 to plot a tumor growth curve. After the pharmaceutical treatment, the tumor was stripped and weighed for record."}, "[3]": {"format": "in vivo", "conditions": "observation for 14 days", "experimental": "Mice weighed 18-22 grams were randomly divided into six groups with 10 mice each group. Each individual group of mice were treated (orally) with: physiological saline, DMSO 2.5 ml/kg, and icariside I: 2000 mg/kg, 1000 mg/kg, 500 mg/kg, 100 mg/kg respectively. […] Therefore, the acute toxicity of icariside I is very low which is safe for use in preparation of pharmaceuticals, health products, food, and cosmetic and skin care products for prevention and treatment of immunity-related diseases."}}}
{"smiles": "COc1ccc(-c2oc3c(CC=C(C)C)c(O[C@@H]4O[C@H](CO)[C@@H](O)[C@H](O)[C@H]4O)cc(O)c3c(=O)c2O)cc1", "note": "[icariside I]", "values": [{"measurement": "promotion of generation of IFN-γ in the mixed lymphocyte culture", "setting": "[1]; 100 and 1000 ng/ml, dose dependent", "value": "up to 300%"}, {"measurement": "ability to promote human γ-interferon production in mixed lymphocyte culture", "setting": "[1]; final concentration 1000 ng/ml", "value": "best ability"}, {"measurement": "tumorigenesis and tumor progression in mice", "setting": "[2]; S180, intraperitoneal, 10 continuous days, 2-20 mg/(kg·d)", "value": "significantly inhibit"}, {"measurement": "change of body weight (g)", "setting": "[2]; high dose 20 mg/Kg i.p.", "value": "+9.0 g"}, {"measurement": "tumor inhibition rate (%) with physiological saline group as control", "setting": "[2]; high dose 20 mg/Kg i.p.", "value": 67.3, "unit": "%"}, {"measurement": "tumor inhibition rate (%) with solvent group as control", "setting": "[2]; high dose 20 mg/Kg i.p.", "value": 74.6, "unit": "%"}, {"measurement": "weight of tumor (x ± SD, g)", "setting": "[2]; high dose 20 mg/Kg i.p.", "value": "0.34 ± 0.12", "unit": "g"}, {"measurement": "change of body weight (g)", "setting": "[2]; low dose 2 mg/Kg i.p.", "value": "+11.6 g"}, {"measurement": "tumor inhibition rate (%) with physiological saline group as control", "setting": "[2]; low dose 2 mg/Kg i.p.", "value": 5.8, "unit": "%"}, {"measurement": "tumor inhibition rate (%) with solvent group as control", "setting": "[2]; low dose 2 mg/Kg i.p.", "value": 26.9, "unit": "%"}, {"measurement": "weight of tumor (x ± SD, g)", "setting": "[2]; low dose 2 mg/Kg i.p.", "value": "0.98 ± 0.47", "unit": "g"}, {"measurement": "change of body weight (g)", "setting": "[2]; low dose 5 mg/Kg i.p.", "value": "+12.5 g"}, {"measurement": "tumor inhibition rate (%) with physiological saline group as control", "setting": "[2]; low dose 5 mg/Kg i.p.", "value": 26.0, "unit": "%"}, {"measurement": "tumor inhibition rate (%) with solvent group as control", "setting": "[2]; low dose 5 mg/Kg i.p.", "value": 42.5, "unit": "%"}, {"measurement": "weight of tumor (x ± SD, g)", "setting": "[2]; low dose 5 mg/Kg i.p.", "value": "0.77 ± 0.47", "unit": "g"}, {"measurement": "change of body weight (g)", "setting": "[2]; middle dose 10 mg/Kg i.p.", "value": "+10.6 g"}, {"measurement": "tumor inhibition rate (%) with physiological saline group as control", "setting": "[2]; middle dose 10 mg/Kg i.p.", "value": 38.5, "unit": "%"}, {"measurement": "tumor inhibition rate (%) with solvent group as control", "setting": "[2]; middle dose 10 mg/Kg i.p.", "value": 52.2, "unit": "%"}, {"measurement": "weight of tumor (x ± SD, g)", "setting": "[2]; middle dose 10 mg/Kg i.p.", "value": "0.64 ± 0.25", "unit": "g"}, {"measurement": "growth and development of the transplanted tumor mass in nude mice", "setting": "xenograft tumor", "value": "significantly inhibit"}, {"measurement": "acute toxicity LD50", "setting": "[3]; mice, oral", "value": "greater than 2000 mg/kg"}, {"measurement": "deaths of test mice", "setting": "[3]; oral 100-2000 mg/kg", "value": "none of the test mice died"}]}
